In ChEMBL document CHEMBL1132459, “Design of MKC-442 (emivirine) analogues with improved activity against drug-resistant HIV mutants” (J Med Chem, 1999):

Tests used:
Details in all cases: Homo sapiens
[1] = system: HeLa; assay: Compound was tested for its cytotoxicity depending on the viability of mock-infected cells; assay type: functional
[2] = system: HeLa; assay: Compound was tested for its inhibition of HIV-1 induced focus formation in MAGI-CCR5 cells in strains like IIIB; assay type: functional, cell-based
[3] = system: HeLa; assay: Compound was tested for its inhibition of HIV-1 induced focus formation in MAGI-CCR5 cells in strains like IIIB-R(Y181C); assay type: functional, cell-based
[4] = system: HeLa; assay: Compound was tested for its inhibition of HIV-1 induced focus formation in MAGI-CCR5 cells in strains like NL4-3; assay type: functional, cell-based
[5] = system: HeLa; assay: Compound was tested for its inhibition of HIV-1 induced focus formation in MAGI-CCR5 cells in strains like NL4-3K103N; assay type: functional, cell-based

| SMILES | CC50 [1] [nM] | EC50 [2] [nM] | EC50 [3] [nM] | EC50 [4] [nM] | EC50 [5] [nM] |
| --- | --- | --- | --- | --- | --- |
| CCOCn1c(SC2CCCCC2)c(C(C)C)c(=O)[nH]c1=O | 74800 | 3 | 270 | 3 | 250 |
| CCOCn1c(Cc2cc(C)cc(C)c2)c(C(C)C)c(=O)[nH]c1=O | 52500 | 1 | 180 | 1 | 40 |
| CCOCn1c(Cc2ccccc2)c(C(C)C)c(=O)[nH]c1=O [EMIVIRINE] | > 100000 | 4 | 13400 | 1 | 1260 |
